Experimental data reported in US9708268B2, “ROR modulators and their uses” (INNOV17 LLC, priority 2012, dated 2017).
One block for each compound: values may come before it.

Key:
human RORγ LBD = human RORγ LBD (Homo sapiens (Human), UniProt P51449); assay: RORγ LBD binding (Human RORγ Assay System, INDIGO Biosciences)
Protocol: Compound binding to the human RORγ LBD was assessed using the Human RORγ Assay System (INDIGO Biosciences Inc.) as per manufacturer's instructions.

IL-21 = assay: Real-time qRT-PCR gene expression in TH17 cells (IL-21); assay type: cell-based, human; parameters: key: A: No change in gene expression observed relative to DMSO treated TH17 cells; B: Decreased gene expression observed relative to DMSO treated TH17 cells; C: Increased gene expression observed relative to DMSO treated TH17 cells; conditions: mRNA
Protocol: (§1) Peripheral blood mononuclear cells (PBMCs) were sourced from freshly prepared leukocyte enriched plasma (buffy coat) from healthy volunteers from which PBMCs were isolated by density gradient centrifugation using Ficoll-Paque™ PLUS (GE Healthcare). Naïve CD4+ T cells were isolated using the Naïve CD4+ T cell Isolation Kit II (Miltenyi Biotec) as per manufacturer's instructions. CD4+ T cells were plated at 5×10^4 cells/well in 96 well plates pre-coated with immobilized human (h)-αCD3 antibody (eBioscience) then differentiated to TH17 cells using h-αCD28, h-αIFN-γ, h-αIL-4, h-IL-6, h-IL-23, […], h-TGF-β1 (eBioscience) and maintained in a cell culture incubator at 37° C. with 5% CO2 in TexMACS Medium (Miltenyi Biotec) supplemented with 1% Penicillin/Streptomycin (Lonza) over 5 days.
(§2) RNA was isolated from TH17 cells and cDNA was synthesized using the Verso cDNA kit (Thermo Scientific) as per manufacturer's instructions. IL-17A, IL-17F, IL-21, IL-22, G-CSF, IL-23R and FOXP3 gene expression were determined for compound treated and untreated TH17 cell samples using Solaris qPCR Gene expression assays (Thermo Scientific) with an iCycler iQ Real-Time PCR Detection System (Bio-Rad). Individual gene expression was normalized to a panel of six reference genes (ACTB, TBP, HPRT1, PGK1, TFRC and PPIA) (Thermo Scientific) and analyzed by REST 2009 (Qiagen) in accordance to MIQE guidelines (Bustin, et al. (2009) Clin. Chem. 55, 611-622), which is hereby incorporated by reference in its entirety). The effects of compounds on TH17 cytokine mRNA levels are presented as fold change in gene expression of compound treated TH17 cells relative to DMSO treated cells in the table below.

IL-17A [1] = assay: TH17 cytokine inhibition as measured by ELISA (IL-17A); assay type: cell-based; conditions: 120 h; human CD4+ T cells differentiated to TH17 over 5 days, supernatant ELISA, vs DMSO
Protocol: as §1
(§3) Human CD4+ T cells were differentiated to TH17 cells as described in the presence or absence of various concentrations of compounds in a final concentration of 0.1% DMSO in TexMACS medium. Supernatants were collected and stored at −20° C. until they were to be assayed for IL-17A, IL-17F, IL-17AF, IL-21 and/or IL-22 levels as determined by Ready-Set-Go ELISA kits (eBioscience) as per manufacturer's instructions. Endpoint absorbance was read at 450 nm and 570 nm according to manufacturer's instructions (eBioscience) using a microplate reader (Perkin Elmer). The percentage of cytokine inhibition was calculated with reference to DMSO treated cells and the IC50s were determined by GraphPad Prism software and presented in the table below.

IL-17AF = assay: TH17 cytokine inhibition as measured by ELISA (IL-17AF); assay type: cell-based; conditions: 120 h; human CD4+ T cells differentiated to TH17 over 5 days, supernatant ELISA, vs DMSO
Protocol: as §1, §3

IL-17F [2] = assay: Real-time qRT-PCR gene expression in TH17 cells (IL-17F); assay type: cell-based, human; parameters: key: A: No change in gene expression observed relative to DMSO treated TH17 cells; B: Decreased gene expression observed relative to DMSO treated TH17 cells; C: Increased gene expression observed relative to DMSO treated TH17 cells; conditions: mRNA
Protocol: as §1, §2

TH17 cells = assay: TH17 cellular proliferation (Prestoblue); assay type: cell-based, human; conditions: 3 μM compound, after 5 day TH17 differentiation, relative to DMSO treated cells
Protocol: as §1
Cellular proliferation was assessed in the presence or absence of 3 μM compound using Prestoblue® Cell Viability Reagent (Life Technologies) as per manufacturer's instructions using absorbance as the output measured by a microplate reader (Perkin Elmer) after 30 minutes of incubation of cells and reagent. A standard curve developed by plotting varying cell numbers versus absorbance was used to assess differences in cellular proliferation between compound treated or untreated cells after the 5 day TH17 differentiation period.

IL-22 [3] = assay: Real-time qRT-PCR gene expression in TH17 cells (IL-22); assay type: cell-based, human; parameters: key: A: No change in gene expression observed relative to DMSO treated TH17 cells; B: Decreased gene expression observed relative to DMSO treated TH17 cells; C: Increased gene expression observed relative to DMSO treated TH17 cells; conditions: mRNA
Protocol: as §1, §2

IL-23R = assay: Real-time qRT-PCR gene expression in TH17 cells (IL-23R); assay type: cell-based, human; parameters: key: A: No change in gene expression observed relative to DMSO treated TH17 cells; B: Decreased gene expression observed relative to DMSO treated TH17 cells; C: Increased gene expression observed relative to DMSO treated TH17 cells; conditions: mRNA
Protocol: as §1, §2

[4] = TH17 cell viability (Prestoblue); assay type: cell-based; parameters: concentration or dose not given beside the values; conditions: human; percentage of DMSO treated cells; read-out: % viability of compound treated TH17 cells
Protocol: as §1
Cells were assayed for viability in the presence or absence of compound using Prestoblue® Cell Viability Reagent (Life Technologies) as per manufacturer's instructions after 30 minutes incubation of TH17 cells with reagent. Absorbance was measured at 570 nm and 600 nm using a microplate reader (Perkin Elmer) and data were analyzed as per manufacturer's instructions. Cell viability was expressed as a percentage of DMSO treated cells.

IL-17F [5] = assay: TH17 cytokine inhibition as measured by ELISA (IL-17F); assay type: cell-based; conditions: 120 h; human CD4+ T cells differentiated to TH17 over 5 days, supernatant ELISA, vs DMSO
Protocol: as §1, §3

FOXP3 = assay: Real-time qRT-PCR gene expression in TH17 cells (FOXP3); assay type: cell-based, human; parameters: key: A: No change in gene expression observed relative to DMSO treated TH17 cells; B: Decreased gene expression observed relative to DMSO treated TH17 cells; C: Increased gene expression observed relative to DMSO treated TH17 cells; conditions: mRNA
Protocol: as §1, §2

IL-17A [6] = assay: Real-time qRT-PCR gene expression in TH17 cells (IL-17A); assay type: cell-based, human; parameters: key: A: No change in gene expression observed relative to DMSO treated TH17 cells; B: Decreased gene expression observed relative to DMSO treated TH17 cells; C: Increased gene expression observed relative to DMSO treated TH17 cells; conditions: mRNA
Protocol: as §1, §2

IL-22 [7] = assay: TH17 cytokine inhibition as measured by ELISA (IL-22); assay type: cell-based; conditions: 120 h; human CD4+ T cells differentiated to TH17 over 5 days, supernatant ELISA, vs DMSO
Protocol: as §1, §3

human RORγ LBD, sequence (P51449 269-508): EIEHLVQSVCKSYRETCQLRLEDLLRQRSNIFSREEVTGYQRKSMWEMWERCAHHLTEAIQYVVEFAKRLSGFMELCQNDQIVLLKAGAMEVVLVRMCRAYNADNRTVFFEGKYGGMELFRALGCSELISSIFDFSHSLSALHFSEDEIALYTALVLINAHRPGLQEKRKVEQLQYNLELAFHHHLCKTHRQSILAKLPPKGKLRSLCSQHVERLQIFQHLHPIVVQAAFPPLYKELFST

- IC50 (human RORγ LBD): < 10 µM
- IC50 (IL-17A [1]): < 10 µM
- IC50 (IL-17AF): < 10 µM
- IC50 (IL-17F [5]): < 10 µM
- IC50 (IL-22 [7]): < 10 µM
Structure (SMILES): CNC(=O)c1ccc2c(c1)CCCN2Cc1ccc(C(O)(C(F)(F)F)C(F)(F)F)cc1 [Example 3, 1-(4-(1,1,1,3,3,3-hexafluoro-2-hydroxypropan-2-yl)benzyl)-N-methyl-1,2,3,4-tetrahydroquinoline-6-carboxamide]
- Change in gene expression of compound treated TH17 cells relative to DMSO treated cells, IL-21 (IL-21): A
- Change in gene expression of compound treated TH17 cells relative to DMSO treated cells, IL-17F (IL-17F [2]): A
- % change in TH17 cell number (TH17 cells): B (≦50% decrease in cell proliferation relative to DMSO treated TH17 cells)
- Change in gene expression of compound treated TH17 cells relative to DMSO treated cells, IL-22 (IL-22 [3]): A
- Change in gene expression of compound treated TH17 cells relative to DMSO treated cells, IL-23R (IL-23R): A
- viability [4]: > 80%
- Change in gene expression of compound treated TH17 cells relative to DMSO treated cells, FOXP3 (FOXP3): A
- Change in gene expression of compound treated TH17 cells relative to DMSO treated cells, IL-17A (IL-17A [6]): A

Structure (SMILES): CN(C)C(=O)c1ccc2c(c1)CCCN2Cc1ccc(C(O)(C(F)(F)F)C(F)(F)F)cc1 [Example 4, 1-(4-(1,1,1,3,3,3-hexafluoro-2-hydroxypropan-2-yl)benzyl)-N,N-dimethyl-1,2,3,4-tetrahydroquinoline-6-carboxamide]
- IC50 (human RORγ LBD): < 10 µM
- Change in gene expression of compound treated TH17 cells relative to DMSO treated cells, IL-21 (IL-21): A
- IC50 (IL-17A [1]): < 10 µM
- IC50 (IL-17AF): < 10 µM
- Change in gene expression of compound treated TH17 cells relative to DMSO treated cells, IL-17F (IL-17F [2]): A
- % change in TH17 cell number (TH17 cells): B (≦50% decrease in cell proliferation relative to DMSO treated TH17 cells)
- Change in gene expression of compound treated TH17 cells relative to DMSO treated cells, IL-22 (IL-22 [3]): A
- Change in gene expression of compound treated TH17 cells relative to DMSO treated cells, IL-23R (IL-23R): A
- viability [4]: > 80%
- IC50 (IL-17F [5]): < 10 µM
- Change in gene expression of compound treated TH17 cells relative to DMSO treated cells, FOXP3 (FOXP3): A
- Change in gene expression of compound treated TH17 cells relative to DMSO treated cells, IL-17A (IL-17A [6]): A
- IC50 (IL-22 [7]): < 10 µM
